Values after ≈ are worked out from the molar mass of the structure shown. Read-outs that look alike come from different tables or passages of the source.
System: A. non-baumannii isolates (n = 87)
Assay: MIC, broth microdilution (EUCAST), A. non-baumannii isolates
Type: cell-based, Acinetobacter spp. (non-baumannii)
Excerpt: The bacterial strains used in this study comprised 208 clinical isolates from the Spanish National Acinetobacter spp. 2020 Multicenter Collection, which was previously characterized in detail by our research group, including whole-genome sequencing, phylogenetics studies, clonal dynamics, and resistance mechanisms ([2], [29]). Additionally, a collection of A. baumannii ATCC 17978 transformants coding the blaOXA-23, blaOXA-24/40, blaOXA-51, blaOXA-58, blaOXA-143, and blaOXA-201 genes, previously constructed and described by our group ([30]), was used to determine the activity of enmetazobactam against strains carrying the main CHDLs of A. baumannii.
The antimicrobial susceptibility of the 208 Acinetobacter spp. isolates was assessed using the broth microdilution method, as described in the European Committee on Antimicrobial Susceptibility Testing (EUCAST) v.15 guidelines (http://www.eucast.org/clinical_breakpoints). […] MICs for enmetazobactam alone were assessed as well. […] Subsequently, MIC testing was also conducted with a collection of A. baumannii ATCC 17978 transformants expressing clinically relevant OXA-like carbapenemase genes.
The A. baumannii ATCC 19606 strain was used as the reference strain in all susceptibility experiments, in duplicate assays. Antibiotics were purchased from Sigma-Aldrich, except enmetazobactam and durlobactam, which were obtained from Advanz Pharma and MedChemExpress, respectively.

`C[n+]1ccn(C[C@@]2(C)[C@H](C(=O)[O-])N3C(=O)C[C@H]3S2(=O)=O)n1` [enmetazobactam] was tested, and the “MIC distribution 0.12” value was 0, the MIC (Acinetobacter baylyi, isolate NO-Ab27, Acinetobacter baylyi, in combinations ETZ fixed at 8 mg/L, read-out: MIC) was 2 µg/mL and the MIC (Acinetobacter beijerinckii, isolate NO-Ab122, Acinetobacter beijerinckii, in combinations ETZ fixed at 8 mg/L, read-out: MIC) was 2 µg/mL. It also gave an MIC (Acinetobacter bereziniae, isolate NO-Ab70, Acinetobacter bereziniae, in combinations ETZ fixed at 8 mg/L, read-out: MIC) of 1 µg/mL, an MIC (Acinetobacter bereziniae, isolate NO-Ab84, Acinetobacter bereziniae, in combinations ETZ fixed at 8 mg/L, read-out: MIC) of 1 µg/mL and an MIC (Acinetobacter bereziniae, isolate NO-Ab104, Acinetobacter bereziniae, in combinations ETZ fixed at 8 mg/L, read-out: MIC) of 1 µg/mL. The MIC (Acinetobacter bereziniae, isolate NO-Ab114, Acinetobacter bereziniae, in combinations ETZ fixed at 8 mg/L, read-out: MIC) was 1 µg/mL, the MIC (Acinetobacter bereziniae, isolate NO-Ab115, Acinetobacter bereziniae, in combinations ETZ fixed at 8 mg/L, read-out: MIC) was 1 µg/mL and the MIC (Acinetobacter bereziniae, isolate NO-Ab116, Acinetobacter bereziniae, in combinations ETZ fixed at 8 mg/L, read-out: MIC) was 1 µg/mL. It also gave an MIC (Acinetobacter bereziniae, isolate NO-Ab117, Acinetobacter bereziniae, in combinations ETZ fixed at 8 mg/L, read-out: MIC) of 2 µg/mL, an MIC (Acinetobacter bereziniae, isolate NO-Ab129, Acinetobacter bereziniae, in combinations ETZ fixed at 8 mg/L, read-out: MIC) of 1 µg/mL and an MIC (Acinetobacter bereziniae, isolate NO-Ab156, Acinetobacter bereziniae, in combinations ETZ fixed at 8 mg/L, read-out: MIC) of 4 µg/mL. The MIC (Acinetobacter calcoaceticus, isolate NO-Ab85, Acinetobacter calcoaceticus, in combinations ETZ fixed at 8 mg/L, read-out: MIC) was 4 µg/mL, the MIC (Acinetobacter calcoaceticus, isolate NO-Ab94, Acinetobacter calcoaceticus, in combinations ETZ fixed at 8 mg/L, read-out: MIC) was 2 µg/mL and the MIC (Acinetobacter calcoaceticus, isolate NO-Ab108, Acinetobacter calcoaceticus, in combinations ETZ fixed at 8 mg/L, read-out: MIC) was 4 µg/mL. The MIC (Acinetobacter calcoaceticus, isolate NO-Ab161, Acinetobacter calcoaceticus, in combinations ETZ fixed at 8 mg/L, read-out: MIC) was 8 µg/mL, the MIC (Acinetobacter calcoaceticus, isolate NO-Ab198, Acinetobacter calcoaceticus, in combinations ETZ fixed at 8 mg/L, read-out: MIC) was 4 µg/mL and the MIC (Acinetobacter calcoaceticus, isolate NO-Ab205, Acinetobacter calcoaceticus, in combinations ETZ fixed at 8 mg/L, read-out: MIC) was 4 µg/mL. It also gave an MIC (Acinetobacter calcoaceticus, isolate NO-Ab211, Acinetobacter calcoaceticus, in combinations ETZ fixed at 8 mg/L, read-out: MIC) of 4 µg/mL, an MIC (Acinetobacter courvalinii, isolate NO-Ab216, Acinetobacter courvalinii, in combinations ETZ fixed at 8 mg/L, read-out: MIC) of 1 µg/mL and an MIC (Acinetobacter dispersus, isolate NO-Ab2, Acinetobacter dispersus, in combinations ETZ fixed at 8 mg/L, read-out: MIC) of 2 µg/mL. It also gave an MIC (Acinetobacter guillouiae, isolate NO-Ab69, Acinetobacter guillouiae, in combinations ETZ fixed at 8 mg/L, read-out: MIC) of 2 µg/mL, an MIC (Acinetobacter guillouiae, isolate NO-Ab74, Acinetobacter guillouiae, in combinations ETZ fixed at 8 mg/L, read-out: MIC) of 2 µg/mL and an MIC (Acinetobacter haemolyticus, isolate NO-Ab92, Acinetobacter haemolyticus, in combinations ETZ fixed at 8 mg/L) of 1 µg/mL. For the same molecule, the MIC (Acinetobacter haemolyticus, isolate NO-Ab177, Acinetobacter haemolyticus, in combinations ETZ fixed at 8 mg/L) was 1 µg/mL, the MIC (Acinetobacter haemolyticus, isolate NO-Ab217, Acinetobacter haemolyticus, in combinations ETZ fixed at 8 mg/L) was 0.5 µg/mL and the MIC (Acinetobacter johnsonii, isolate NO-Ab101, Acinetobacter johnsonii, in combinations ETZ fixed at 8 mg/L, read-out: MIC) was 4 µg/mL. It also gave an MIC (Acinetobacter junii, isolate NO-Ab76, Acinetobacter junii, in combinations ETZ fixed at 8 mg/L, read-out: MIC) of 2 µg/mL, an MIC (Acinetobacter junii, isolate NO-Ab77, Acinetobacter junii, OXA-24/40, in combinations ETZ fixed at 8 mg/L, read-out: MIC) of 2 µg/mL and an MIC (Acinetobacter lactucae, isolate NO-Ab60, Acinetobacter dijkshoorniae, in combinations ETZ fixed at 8 mg/L, read-out: MIC) of 4 µg/mL. The MIC (Acinetobacter lactucae, isolate NO-Ab63, Acinetobacter dijkshoorniae, in combinations ETZ fixed at 8 mg/L, read-out: MIC) was 4 µg/mL, the MIC (Acinetobacter lactucae, isolate NO-Ab65, Acinetobacter dijkshoorniae, in combinations ETZ fixed at 8 mg/L, read-out: MIC) was 4 µg/mL and the MIC (Acinetobacter lactucae, isolate NO-Ab86, Acinetobacter dijkshoorniae, in combinations ETZ fixed at 8 mg/L, read-out: MIC) was 2 µg/mL. For the same molecule, the MIC (Acinetobacter lactucae, isolate NO-Ab88, Acinetobacter dijkshoorniae, in combinations ETZ fixed at 8 mg/L, read-out: MIC) was 2 µg/mL, the MIC (Acinetobacter lactucae, isolate NO-Ab91, Acinetobacter dijkshoorniae, in combinations ETZ fixed at 8 mg/L, read-out: MIC) was 2 µg/mL and the MIC (Acinetobacter lactucae, isolate NO-Ab121, Acinetobacter dijkshoorniae, in combinations ETZ fixed at 8 mg/L, read-out: MIC) was 2 µg/mL. The MIC (Acinetobacter lactucae, isolate NO-Ab125, Acinetobacter dijkshoorniae, in combinations ETZ fixed at 8 mg/L, read-out: MIC) was 1 µg/mL, the MIC (Acinetobacter lactucae, isolate NO-Ab160, Acinetobacter dijkshoorniae, in combinations ETZ fixed at 8 mg/L, read-out: MIC) was 4 µg/mL and the MIC (Acinetobacter nosocomialis, isolate NO-Ab43, Acinetobacter nosocomialis, in combinations ETZ fixed at 8 mg/L, read-out: MIC) was 2 µg/mL. The MIC (Acinetobacter nosocomialis, isolate NO-Ab68, Acinetobacter nosocomialis, OXA-24/40, in combinations ETZ fixed at 8 mg/L, read-out: MIC) was 16 µg/mL, the MIC (Acinetobacter nosocomialis, isolate NO-Ab98, Acinetobacter nosocomialis, in combinations ETZ fixed at 8 mg/L, read-out: MIC) was 2 µg/mL and the MIC (Acinetobacter nosocomialis, isolate NO-Ab208, Acinetobacter nosocomialis, in combinations ETZ fixed at 8 mg/L, read-out: MIC) was 2 µg/mL. It also gave an MIC (Acinetobacter pittii, MBC set, isolate NO-Ab89, A. pittii, read-out: MIC) of 2 µg/mL (≈ 6.36 µM), an MIC (Acinetobacter pittii, isolate NO-Ab59, Acinetobacter pittii, in combinations ETZ fixed at 8 mg/L, read-out: MIC) of 2 µg/mL and an MIC (Acinetobacter pittii, isolate NO-Ab66, Acinetobacter pittii, in combinations ETZ fixed at 8 mg/L, read-out: MIC) of 2 µg/mL. It also gave an MIC (Acinetobacter pittii, isolate NO-Ab73, Acinetobacter pittii, in combinations ETZ fixed at 8 mg/L, read-out: MIC) of 2 µg/mL, an MIC (Acinetobacter pittii, isolate NO-Ab75, Acinetobacter pittii, in combinations ETZ fixed at 8 mg/L, read-out: MIC) of 2 µg/mL and an MIC (Acinetobacter pittii, isolate NO-Ab78, Acinetobacter pittii, in combinations ETZ fixed at 8 mg/L, read-out: MIC) of 2 µg/mL. It also gave an MIC (Acinetobacter pittii, isolate NO-Ab82, Acinetobacter pittii, in combinations ETZ fixed at 8 mg/L, read-out: MIC) of 2 µg/mL, an MIC (Acinetobacter pittii, isolate NO-Ab89, Acinetobacter pittii, in combinations ETZ fixed at 8 mg/L, read-out: MIC) of 2 µg/mL and an MIC (Acinetobacter pittii, isolate NO-Ab90, Acinetobacter pittii, in combinations ETZ fixed at 8 mg/L, read-out: MIC) of 2 µg/mL. For the same molecule, the MIC (Acinetobacter pittii, isolate NO-Ab97, Acinetobacter pittii, in combinations ETZ fixed at 8 mg/L, read-out: MIC) was 2 µg/mL, the MIC (Acinetobacter pittii, isolate NO-Ab105, Acinetobacter pittii, in combinations ETZ fixed at 8 mg/L, read-out: MIC) was 2 µg/mL and the MIC (Acinetobacter pittii, isolate NO-Ab106, Acinetobacter pittii, in combinations ETZ fixed at 8 mg/L, read-out: MIC) was 2 µg/mL. The MIC (Acinetobacter pittii, isolate NO-Ab107, Acinetobacter pittii, in combinations ETZ fixed at 8 mg/L, read-out: MIC) was 1 µg/mL, the MIC (Acinetobacter pittii, isolate NO-Ab111, Acinetobacter pittii, in combinations ETZ fixed at 8 mg/L, read-out: MIC) was 2 µg/mL and the MIC (Acinetobacter pittii, isolate NO-Ab113, Acinetobacter pittii, in combinations ETZ fixed at 8 mg/L, read-out: MIC) was 2 µg/mL. For the same molecule, the MIC (Acinetobacter pittii, isolate NO-Ab118, Acinetobacter pittii, in combinations ETZ fixed at 8 mg/L, read-out: MIC) was 2 µg/mL and the MIC (Acinetobacter pittii, isolate NO-Ab135, Acinetobacter pittii, in combinations ETZ fixed at 8 mg/L, read-out: MIC) was 2 µg/mL.
